# Results reported in US8623855B2, “Azetidinone compounds and medical use thereof” (Zhejiang Hisun Pharmaceutical Co., Ltd., priority 2009, dated 2014).
# Where two headings read alike, the source gives them in different places.
# What was measured:
# [1] = test system: hypercholesterolemia golden hamster model; assay: In vivo pharmacodynamic screening in hypercholesterolemia model of golden hamster (plasma TC and LDL-C); conditions: for inhibition in vivo at 0.4 mg/kg / inhibition in vivo at 2 mg/kg / inhibition in vivo at 10 mg/kg: Table 2; for LDL-C after administration / TC after administration / LDL after administration: 1 week, plasma
# Description: 1. Establishment of Hypercholesterolemia Model of Golden Hamster:
# The animals were subjected to acclimation feeding for 1 week with free feeding and drinking under a lighting condition of 10 h/14 h. On Day 8, the animals were raised with high fat feed (consisting of 0.5% cholesterol, 20% palm oil, 79.5% basal feed) for 1 week. Then, each animal was anesthetized by ether. After weighing, 0.5 ml blood was obtained from orbital vein, anticoagulated with heparin and centrifuged at 5000 rpm for 10 min. The plasma was collected and the levels of plasma TC (total cholesterol) and LDL-C (low density lipoprotein cholesterol) were determined by automatic biochemical analyzer. Animals with plasma TC of 9-15 mmol/L were selected as model animals (refer to the following reference for the method of animal modeling: Burrier, R. E., Smith, A. A., Mcgregor, D. G, Hoos, L. M., Zilli, D. L., Davis, H. R. The effect of acyl CoA: cholesterol acyltransferase inhibition on the uptake, esterification and secretion of cholesterol by the hamster small intestine. J. Pharm. Exp. Ther., 1995, 272, 156-163).
# The animals were grouped according to TC and LDL-C levels and weight with 6 animals per group. Ezetimibe was used as positive control. The animals were intragastrically administered at a volume of 5 ml/kg for 1 week. Each animal was anesthetized by ether. After weighing, 0.5 ml blood was taken from orbital vein, anticoagulated with heparin, and centrifuged at 5000 rpm for 10 min. The plasma was collected and plasma TC (total cholesterol) and LDL-C (low density lipoprotein cholesterol) levels were determined by automatic biochemical analyzer to evaluate the efficacy of the compounds.
# [2] = test system: normal guinea pig; assay: Effect on blood lipid level of normal guinea pigs; format: in vivo; conditions: for HDL after administration / LDL after administration / TC after administration / TG after administration: Table 13
# [3] = Mesocricetus auratus, po, 168 h, read-out: Reducing LDL-C %
# [4] = Mesocricetus auratus, po, 168 h, read-out: Reducing TC %
# [5] = Mesocricetus auratus, po, 168 h, Table 4, 1 mg/kg, read-out: Reducing TC %
# [6] = Table 1, 0.4 mg/kg intragastric
# [7] = Table 1, baseline of group dosed 2 mg/kg
# [8] = Table 11, baseline of group dosed 1 mg/kg
smiles,measurement,setting,value
"O=C1[C@H](C/C=C(\CO)c2ccc(F)cc2)[C@@H](c2ccc(O)cc2)N1c1ccc(F)cc1 [I-1(Z), (3R,4S)-1-(4-fluorophenyl)-3-[(Z)-3-(4-fluorophenyl)-4-hydroxy-but-2-enyl]-4-(4-hydroxyphenyl)azetidin-2-one]",inhibition in vivo at 0.4 mg/kg,[1]; [3],32.7%
same,inhibition in vivo at 0.4 mg/kg,[1]; [4],33.7%
same,inhibition in vivo at 2 mg/kg,[1]; [3],72.4%
same,inhibition in vivo at 2 mg/kg,[1]; [4],49.7%
same,inhibition in vivo at 10 mg/kg,[1]; [3],83.1%
same,inhibition in vivo at 10 mg/kg,[1]; [4],55.9%
same,inhibition in vivo at 1 mg/kg,[1]; [5],57.5%
same,inhibition in vivo at 4 mg/kg,"[1]; Mesocricetus auratus, po, 168 h, Table 4, 4 mg/kg, read-out: Reducing TC %",67.9%
same,LDL-C after administration,[1]; [6],1.52 ± 0.31 mmol/L
same,TC after administration,[1]; [6],6.46 ± 0.58 mmol/L
same,LDL-C after administration,"[1]; Table 1, 2 mg/kg intragastric",0.71 ± 0.49 mmol/L
same,TC after administration,"[1]; Table 1, 2 mg/kg intragastric",4.9 ± 0.62 mmol/L
same,LDL-C after administration,"[1]; Table 1, 10 mg/kg intragastric",0.42 ± 0.2 mmol/L
same,TC after administration,"[1]; Table 1, 10 mg/kg intragastric",4.3 ± 0.85 mmol/L
same,LDL-C before administration,"[1]; Table 1, baseline of group dosed 0.4 mg/kg",2.26 ± 0.65 mmol/L
same,LDL-C before administration,[1]; [7],2.57 ± 0.47 mmol/L
same,LDL-C before administration,"[1]; Table 1, baseline of group dosed 10 mg/kg",2.48 ± 0.67 mmol/L
same,LDL after administration,"[1]; Table 3, 1 mg/kg intragastric",1.19 ± 0.16 mmol/L
same,TC after administration,"[1]; Table 3, 1 mg/kg intragastric",5.79 ± 0.99 mmol/L
same,LDL after administration,"[1]; Table 3, 4 mg/kg intragastric",0.99 ± 0.28 mmol/L
same,TC after administration,"[1]; Table 3, 4 mg/kg intragastric",4.37 ± 0.59 mmol/L
same,Reducing LDL %,"[1]; Table 4, 1 mg/kg",35.7%
same,Reducing LDL %,"[1]; Table 4, 4 mg/kg",46.2%
same,effect compared with positive control Ezetimibe at the same dose (in words),"[1]; golden hamster hypercholesterolemic model, same dose",the same as that of the positive control
same,reduction of plasma TC and LDL-C levels (in words),"[1]; golden hamster hypercholesterolemic model, significant statistical difference",can significantly reduce the plasma TC and LDL-C levels
same,effect of lowering cholesterol (screening result in words),"[1]; in vivo pharmacodynamic screening test, Ezetimibe as positive control",have the effect of lowering cholesterol
same,efficacy compared with the positive control (in words),[1]; positive control Ezetimibe,more similar to the positive control
same,HDL after administration,[2]; 0.1 mg/kg,0.47 mmol/L
same,LDL after administration,[2]; 0.1 mg/kg,1.73 mmol/L
same,TC after administration,[2]; 0.1 mg/kg,1.77 ± 0.43 mmol/L
same,TG after administration,[2]; 0.1 mg/kg,0.38 ± 0.05 mmol/L
same,HDL after administration,[2]; 0.5 mg/kg,0.4 mmol/L
same,LDL after administration,[2]; 0.5 mg/kg,1.75 mmol/L
same,TC after administration,[2]; 0.5 mg/kg,1.9 ± 0.2 mmol/L
same,TG after administration,[2]; 0.5 mg/kg,0.44 ± 0.06 mmol/L
same,HDL after administration,[2]; 2.5 mg/kg,0.47 mmol/L
same,LDL after administration,[2]; 2.5 mg/kg,0.86 mmol/L
same,TC after administration,[2]; 2.5 mg/kg,1.17 ± 0.25 mmol/L
same,TG after administration,[2]; 2.5 mg/kg,0.31 ± 0.12 mmol/L
same,reduction of plasma TC and LDL-C levels (in words),[2]; normal guinea pigs,can significantly reduce the plasma TC and LDL-C levels
same,effect compared with positive control Ezetimibe at the same dose (in words),"[2]; normal guinea pigs, same dose",the same as that of the positive control
"O=C1[C@H](CC[C@H](O)c2ccc(F)cc2)[C@@H](c2ccc(O)cc2)N1c1ccc(F)cc1 [Ezetimibe, reference compound]",inhibition in vivo at 2 mg/kg,[1]; [3],77.6%
same,inhibition in vivo at 2 mg/kg,[1]; [4],57.4%
same,inhibition in vivo at 1 mg/kg,[1]; [5],58.8%
same,inhibition in vivo at 1 mg/kg,"[1]; Mesocricetus auratus, po, 168 h, Table 6, 1 mg/kg, read-out: Reducing LDL-C %",76%
same,inhibition in vivo at 1 mg/kg,"[1]; Mesocricetus auratus, po, 168 h, Table 6, 1 mg/kg, read-out: Reducing TC %",58.3%
same,inhibition in vivo at 1 mg/kg,"[1]; Mesocricetus auratus, po, 168 h, Table 8, 1 mg/kg, read-out: Reducing LDL-C %",64.2%
same,inhibition in vivo at 1 mg/kg,"[1]; Mesocricetus auratus, po, 168 h, Table 8, 1 mg/kg, read-out: Reducing TC %",48.1%
same,inhibition in vivo at 1 mg/kg,"[1]; Mesocricetus auratus, po, 168 h, Table 10, 1 mg/kg, read-out: Reducing LDL-C %",68.2%
same,inhibition in vivo at 1 mg/kg,"[1]; Mesocricetus auratus, po, 168 h, Table 10, 1 mg/kg, read-out: Reducing TC %",64.4%
same,inhibition in vivo at 1 mg/kg,"[1]; Mesocricetus auratus, po, 168 h, Table 12, 1 mg/kg, read-out: Reducing LDL-C %",60.8%
same,inhibition in vivo at 1 mg/kg,"[1]; Mesocricetus auratus, po, 168 h, Table 12, 1 mg/kg, read-out: Reducing TC %",58.5%
same,LDL-C after administration,"[1]; Table 1, 2 mg/kg intragastric",0.57 ± 0.34 mmol/L
same,TC after administration,"[1]; Table 1, 2 mg/kg intragastric",4.21 ± 0.68 mmol/L
same,LDL-C before administration,[1]; [7],2.55 ± 0.96 mmol/L
same,LDL after administration,"[1]; Table 3, 1 mg/kg intragastric",1.16 ± 0.44 mmol/L
same,TC after administration,"[1]; Table 3, 1 mg/kg intragastric",5.62 ± 0.48 mmol/L
same,Reducing LDL %,"[1]; Table 4, 1 mg/kg",36.0%
same,LDL after administration,"[1]; Table 5, 1 mg/kg intragastric",1.3 mmol/L
same,TC after administration,"[1]; Table 5, 1 mg/kg intragastric",4.51 mmol/L
same,LDL after administration,"[1]; Table 7, 1 mg/kg intragastric",1.62 mmol/L
same,TC after administration,"[1]; Table 7, 1 mg/kg intragastric",5.58 mmol/L
same,LDL after administration,"[1]; Table 9, 1 mg/kg intragastric",1.0 mmol/L
same,TC after administration,"[1]; Table 9, 1 mg/kg intragastric",5.45 mmol/L
same,LDL-C after administration,"[1]; Table 11, 1 mg/kg intragastric",1.13
same,TC after administration,"[1]; Table 11, 1 mg/kg intragastric",5.29
same,LDL-C before administration,[1]; [8],2.88 ± 0.79
same,TC before administration,[1]; [8],12.74 ± 1.44
same,HDL after administration,[2]; 2.5 mg/kg,0.41 mmol/L
same,LDL after administration,[2]; 2.5 mg/kg,0.99 mmol/L
same,TC after administration,[2]; 2.5 mg/kg,1.14 ± 0.24 mmol/L
same,TG after administration,[2]; 2.5 mg/kg,0.41 ± 0.12 mmol/L
